In patent publication US6642226B2, “Substituted phenyl-piperidine methanone compounds” (Hoffman-La Roche Inc., priority 2001, dated 2003):
Converted amounts (≈) assume the structure as drawn.

Experiments:
[1] = Solubility at pH 6.5 and pH 4.3 (water-solubility); settings: water (aqueous medium; buffer not named)
human NK1 receptor = target: T1, human NK1 receptor (Homo sapiens, UniProt P25103); assay: NK1 receptor binding, [3H]substance P displacement; settings: for Ki: read-out: pKi (affinity to the NK-1 receptor) (converted); for relative activity of enantiomer in the test for NK-1 binding: enantiomer fraction from Chiralpak AD separation of the racemate
T1 construct: expressed in transfected cells; host or cells: CHO cells, Semliki virus expression system; membrane suspension
T1 sequence (P25103 whole entry): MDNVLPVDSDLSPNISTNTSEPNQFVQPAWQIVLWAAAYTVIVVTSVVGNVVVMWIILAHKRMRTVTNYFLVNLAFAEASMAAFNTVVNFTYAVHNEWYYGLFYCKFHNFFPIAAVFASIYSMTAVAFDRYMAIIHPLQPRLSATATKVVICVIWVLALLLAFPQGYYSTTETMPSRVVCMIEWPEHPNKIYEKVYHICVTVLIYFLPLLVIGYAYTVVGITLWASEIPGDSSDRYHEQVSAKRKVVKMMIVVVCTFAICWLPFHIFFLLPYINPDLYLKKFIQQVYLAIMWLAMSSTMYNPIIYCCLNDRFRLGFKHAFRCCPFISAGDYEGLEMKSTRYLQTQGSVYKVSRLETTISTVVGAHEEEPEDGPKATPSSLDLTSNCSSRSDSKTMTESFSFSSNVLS
Procedure: The affinity of test compounds for the NK1 receptor was evaluated at human NK1 receptors in CHO cells infected with the human NK1 receptor (using the Semliki virus expression system) and radiolabelled with [^3H]substance P (final concentration 0.6 nM). Binding assays were performed in HEPES buffer (50 mM, pH 7.4) containing BSA (0.04%) leupeptin (8 μg/ml), MnCl2 (3 mM) and phosphoramidon (2 μM). Binding assays consisted of 250 μl of membrane suspension (1.25×10^5 cells/assay tube), […] of buffer of displacing agent and 125 μl of [^3H]substance P. Displacement curves were determined with at least seven concentrations of the compound. The assay tubes were incubated for 60 min at room temperature after which time the tube contents were rapidly filtered under vacuum through GF/C filters presoaked for 60 min with PEI (0.3%) with 2×2 ml washes of HEPES buffer (50 mM, pH 7.4). The radioactivity retained on the filters was measured by scintillation counting. All assays were performed in triplicate in at least 2 separate experiments.

[2] = human NK1 receptors in CHO cells, [3H]substance P 0.6 nM

solubility ([1]; pH 4.3, aqueous buffer) | Ki (human NK1 receptor; [2]) | Structure (SMILES) | also measured
> 8400 µg/mL | 3.09 nM | CN1CCN([C@H]2CCN(C(=O)c3cc(C(F)(F)F)cc(C(F)(F)F)c3)C[C@H]2c2ccccc2)CC1 (racemic) [Example 27, Rac-cis-(3,5-Bis-trifluoromethyl-phenyl)-[4-(4-methyl-piperazin-1-yl)-3-phenyl-piperidin-1-yl]-methanone] | solubility ([1]; pH 6.5, aqueous buffer): 910 µg/mL (≈ 1820 µM)
> 3500 µg/mL |  | O=C(c1cc(C(F)(F)F)cc(C(F)(F)F)c1)N1CC[C@H](N2CCNCC2)[C@H](c2ccccc2)C1 (racemic) [Example 34, Rac-cis-(3,5-Bis-trifluoromethyl-phenyl)-(3-phenyl-4-piperazin-1-yl-piperidin-1-yl)-methanone] | 
> 7500 µg/mL | 1.26 nM | O=C(c1cc(C(F)(F)F)cc(C(F)(F)F)c1)N1CC[C@H](N2CCN(CC3CC3)CC2)[C@H](c2ccccc2)C1 (racemic) [Example 36, Rac-cis-(3,5-Bis-trifluoromethyl-phenyl)-[4-(4-cyclopropylmethyl-piperazin-1-yl)-3-phenyl-piperidin-1-yl]-methanone] | 
2400 µg/mL (≈ 4640 µM) |  | CN1CCN([C@H]2CCN(C(=O)c3cc(C(F)(F)F)cc(C(F)(F)F)c3)C[C@H]2c2ccc(F)cc2)CC1 (racemic) [Example 45, Rac-cis-(3,5-Bis-trifluoromethyl-phenyl)-[3-(4-fluoro-phenyl)-4-(4-methyl-piperazin-1-yl)-piperidin-1-yl]-methanone] | solubility ([1]; pH 6.5, aqueous buffer): 1000 µg/mL (≈ 1930 µM)
 | 0.363 nM | O=C(c1cc(C(F)(F)F)cc(C(F)(F)F)c1)N1CCC(N2CCN(CC3CC3)CC2)C(c2ccccc2)C1 (single isomer, unassigned; (-)) [Example 114, (−)-(3,5-Bis-trifluoromethyl-phenyl)-[4-(4-cyclopropylmethyl-piperazin-1-yl)-3-phenyl-piperidin-1-yl]-methanone] | 
1000 µg/mL (≈ 1870 µM) | 2.14 nM | O=C(c1cc(C(F)(F)F)cc(C(F)(F)F)c1)N1CCC(N2CCC(O)CC2)C(c2ccc(Cl)cc2)C1 (racemic) [Example 63, Rac-cis-(3,5-Bis-trifluoromethyl-phenyl)-[3′-(4-chloro-phenyl)-4-hydroxy-[1,4′]bipiperidinyl-1′-yl]-methanone] | solubility ([1]; pH 6.5, aqueous buffer): 780 µg/mL (≈ 1460 µM)
 |  | Cc1ccc(C2CN(C(=O)c3cc(C(F)(F)F)cc(C(F)(F)F)c3)CCC2N2CCN(CC3CC3)CC2)cc1 (single isomer, unassigned; (-)) [Example 102, (−)-4-(3,5-Bis-trifluoromethyl-phenyl)-[4-(4-cyclopropylmethyl-piperazin-1-yl)-3-p-tolyl-piperidin-1-yl]-methanone] | Solubility at pH 4.3 (pH 4.3): 5.5 mg/mL; Solubility at pH 6.5 (pH 6.5): 0.43 mg/mL; pKi (affinity to the NK-1 receptor) (human NK1 receptor; [2]): 9.28
 | 3.16 nM | O=C(c1cc(C(F)(F)F)cc(C(F)(F)F)c1)N1CC[C@H](N2CCN(CC3CC3)CC2)[C@H](c2ccc(F)cc2)C1 (racemic) [Example 88, Rac-cis-(3,5-Bis-trifluoromethyl-phenyl)-[4-(4-cyclopropylmethyl-piperazin-1-yl)-3-(4-fluoro-phenyl)-piperidin-1-yl]-methanone] | 
 | 1.78 nM | NC1CCN(C2CCN(C(=O)c3cc(C(F)(F)F)cc(C(F)(F)F)c3)CC2c2ccc(F)cc2)C1 (mixture of isomers) [Example 118, (3RS,3′RS,4SR)- and (3RS,3′SR,4SR)-[4-(3-Amino-pyrrolidin-1-yl)-3-(4-fluoro-phenyl)-piperidin-1-yl]-(3,5-bis-trifluoromethyl-phenyl)-methanone] | 
 | 2.14 nM | Cc1ccc(C2CN(C(=O)c3cc(C(F)(F)F)cc(C(F)(F)F)c3)CCC2N2CCN(C(=O)C3CC3)CC2)cc1 (single isomer, unassigned; (-)) [Example 103, (−)-(3,5-Bis-trifluoromethyl-phenyl)-[4-(4-cyclopropanecarbonyl-piperazin-1-yl)-3-p-tolyl-piperidin-1-yl]-methanone] | 
 | 2.69 nM | CN1CCN([C@@H]2CCN(C(=O)c3cc(C(F)(F)F)cc(C(F)(F)F)c3)C[C@@H]2c2ccccc2)CC1 (single isomer, unassigned) [Example 92, (−)-(3,5-Bis-trifluoromethyl-phenyl)-[3-phenyl-4-(4-methyl-piperazin-1-yl)-piperidin-1-yl]-methanone] | relative activity of enantiomer in the test for NK-1 binding (human NK1 receptor): more active enantiomer
 | 2.95 nM | O=C(NC1CCCN(C2CCN(C(=O)c3cc(C(F)(F)F)cc(C(F)(F)F)c3)CC2c2ccc(F)cc2)C1)C1CC1 (mixture of isomers) [Example 77, (3RS,3′RS,4SR)- and (3RS,3′SR,4SR)-Cyclopropanecarboxylic acid [1′-(3,5-bis-trifluoromethyl-benzoyl)-3′-(4-fluoro-phenyl)-[1,4′]bipiperidinyl-3-yl]-amide] | 
 | 0.363 nM | O=C(c1cc(C(F)(F)F)cc(C(F)(F)F)c1)N1CCC(N2CCN(CC3CC3)CC2)C(c2ccc(Cl)cc2)C1 (single isomer, unassigned; (-)) [Example 113, (−)-(3,5-Bis-trifluoromethyl-phenyl)-[3-(4-chloro-phenyl)-4-(4-cyclopropylmethyl-piperazin-1-yl)-piperidin-1-yl]-methanone] | 
 | 2.75 nM | O=C(c1cc(C(F)(F)F)cc(C(F)(F)F)c1)N1CCC(N2CCC(OCC3CC3)CC2)C(c2ccc(Cl)cc2)C1 (racemic) [Example 66, Rac-cis-(3,5-Bis-trifluoromethyl-phenyl)-[3′-(4-chloro-phenyl)-4-cyclopropylmethoxy-[1,4′]bipiperidinyl-1′-yl]-methanone] | 
 |  | Cc1ccc(C2CN(C(=O)c3cc(C(F)(F)F)cc(C(F)(F)F)c3)CCC2N2CCN(C(=O)C(F)(F)F)CC2)cc1 (single isomer, unassigned; (-)) [Example 100, (−)-{4-[1-(3,5-Bis-trifluoromethyl-benzoyl)-3-p-tolyl-piperidin-4-yl]-piperazin-1-yl}-2,2,2-trifluoro-ethanone] | relative activity of enantiomer in the test for NK-1 binding (human NK1 receptor): more active enantiomer
